Drawing on patent US6664273B2, “Piperidine based MCH antagonists for treatment of obesity and CNS disorders” (Schering Corporation, priority 2001, dated 2003), this text covers Ki for ten compounds.

T1 sequence (Q99705 whole entry): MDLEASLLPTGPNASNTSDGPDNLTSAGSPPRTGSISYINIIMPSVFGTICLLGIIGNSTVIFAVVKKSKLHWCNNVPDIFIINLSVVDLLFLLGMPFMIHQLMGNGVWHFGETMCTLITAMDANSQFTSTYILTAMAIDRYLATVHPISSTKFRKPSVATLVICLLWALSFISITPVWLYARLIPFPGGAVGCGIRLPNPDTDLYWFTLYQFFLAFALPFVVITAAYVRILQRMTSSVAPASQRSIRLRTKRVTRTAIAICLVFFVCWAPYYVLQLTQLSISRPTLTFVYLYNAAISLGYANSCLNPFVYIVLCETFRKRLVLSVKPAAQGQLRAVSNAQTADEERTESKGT

The test addresses T1, MCH receptor (Homo sapiens, UniProt Q99705).
T1 construct: expressed in transfected cells; host or cells: CHO cells
As to the kind of experiment: MCH Receptor Binding Assay. As to conditions: [125I]-MCH, SPA, membranes from CHO cells expressing the MCH receptor. The procedure:
Membranes from CHO cells expressing the MCH receptor were prepared by lysing cells with 5 mM HEPES for 15 min at 4C. Cell lysates were centrifuged ([…], 15 min) and the pellet was re-suspended in 5 mM HEPES. For each 96-well plate (Microlite, Dynex Technologies), 1 mg of cell membranes were incubated with 10 mg of wheat germ agglutinin SPA beads (Amersham) for 5 min at 4 C in a volume of 10 ml of binding buffer (25 mM HEPES, 10 mM MGCl2, 10 mM NaCl, 5 mM MnCl2, 0.1% BSA). The membrane/bead mixture was centrifuged (1500×g, 3.5 min), the supernatant was aspirated, and the pellet was re-suspended in 10 ml binding buffer. The centrifugation, aspiration and re-suspension were then repeated. The membrane/bead mixture (100 μl) was then added to 96-well plates containing 50 μl of 500 pM [^125I]-MCH (NEN) and […] of the appropriate concentration of compound (4× the desired final concentration). Nonspecific binding was determined by including 1 μM MCH in the binding reaction. The binding reaction was incubated at room temperature for 2 h. Plates were then analyzed in a TOPCOUNT microplate scintillation counter (Packard). Data was analyzed and Ki values were determined using GraphPad Prism.
In general, Ki refers to the dissociation constant of the complex between target and ligand, obtained from inhibition or displacement. `N#Cc1cccc(-c2ccc(C3(NCC(=O)Nc4cc(Cl)cc(Cl)c4)CCN(C4CCCC4)CC3)cc2)c1` yielded a Ki of 3.2 nM.
The figure for `CN(CC(=O)Nc1cc(Cl)cc(Cl)c1)C1(c2ccc(-c3cccc(C#N)c3)cc2)CCN(C2CCCC2)CC1` is 8.6 nM; for `N#Cc1cccc(-c2ccc(C3(NCC(=O)Nc4ccc(F)c(Cl)c4)CCNCC3)cc2)c1` it is 3 nM; for `CN(CC(=O)Nc1ccc(F)c(Cl)c1)C1(c2ccc(-c3cccc(C#N)c3)cc2)CCNCC1` it is 4.7 nM.
Under `CC(=O)N1CCC(c2ccc(-c3cccc(C#N)c3)cc2)(N(C)CC(=O)Nc2ccc(F)c(Cl)c2)CC1` stands 25 nM; under `CN(CC(=O)Nc1ccc(F)c(Cl)c1)C1(c2ccc(-c3cccc(C#N)c3)cc2)CCN(S(C)(=O)=O)CC1`, 70 nM.
The figure for `O=C(CNC1(c2ccc(-c3cccc(F)c3)cc2)CCN(C2CCCC2)CC1)Nc1ccc(F)c(Cl)c1` is 99 nM; for `O=C(CNC1(c2ccc(-c3cccc(Cl)c3)cc2)CCN(C2CCCC2)CC1)Nc1ccc(F)c(Cl)c1` it is 63 nM.
In turn, `COc1cccc(-c2ccc(C3(NCC(=O)Nc4ccc(F)c(Cl)c4)CCN(C4CCCC4)CC3)cc2)c1` came in with a Ki of 77 nM.
The figure for `CS(=O)(=O)c1ccc(CN2CCC(OCC(=O)Nc3cc(Cl)cc(Cl)c3)(c3ccc(-c4cccc(C#N)c4)cc3)CC2)cc1` is 76 nM.
